Measured values taken from patent US8710102B2, “Use of beta-adrenoceptor antagonists for the manufacture of a medicament of the treatment of disorders of the outer retina” (Novartis AG, priority 1999, dated 2014).

Columns and labels:
CNTF mRNA = assay: Retinal CNTF mRNA upregulation, Northern blot after single IP injection; details: single IP injection 20 mg/kg; retina harvested after 12 hours in the dark; CNTF/18S
bFGF mRNA = assay: Retinal bFGF mRNA upregulation, Northern blot after single IP injection; details: single IP injection 20 mg/kg; retina harvested after 12 hours in the dark; bFGF/18S
[1] = Light damage paradigms: prevention of light-induced functional or morphological changes; type: in vivo; details: applicant's light damage paradigms
Male Sprague Dawley rats [2] = details: 0.5% topical ocular b.i.d.; for Protection of retinal function compared to vehicle dosed rats: two drops per eye, 17 days before and 2 days after light exposure, ERG five days after
Experimental: The purpose of this experiment was to determine the degree of retinal protection that could be measured in rats following topical ocular dosing. Levobetaxolol (0.5%), (racemic) betaxolol (0.5%), and vehicle were evaluated in the photic retinopathy model. Induction of photochemical lesions and evaluation of retinal function with the ERG were performed as described in the photo-oxidative induced retinopathy paradigm used in Example 1.
Male Sprague Dawley rats were randomly assigned to either a vehicle dosed group (N=10), (racemic) betaxolol (0.5%) dosed group (N=10) or levobetaxolol (0.5%) dosed group (N=10). Rats were dosed topical ocular (b.i.d.) with two drops per eye. Rats were pre-dosed for 17 days prior to light exposure and dosed an additional two days after the light exposure. Control rats (N=4) were housed in their home cage under normal cyclic light exposure.

Male Sprague Dawley rats [3] = assay: Photo-oxidative (blue-light) induced retinopathy, systemic IP dosing, ERG; details: for Protection of retina function against light-induced retinal degeneration: 20 and 40 mg/kg IP; for Persistence of protection after a 4-week recovery period: IP dosing
Source text: The purpose of Experiment 1 was to determine if selective β-adrenoceptor antagonists, in particular betaxolol (racemic), levobetaxolol (S-isomer), and betaxolol (R-isomer) are neuroprotective and can rescue retinal cells from a photo-oxidative induced retinopathy. The purpose of Experiment 2 was to determine the dose-dependent efficacy of timolol, a potent non-selective β1- and β2-blocker, in this photo-oxidative stress model. Male Sprague Dawley rats were randomly assigned to drug or vehicle experimental groups. Rats received three intraperitoneal (IP) injections of either vehicle or drug at 48, 24, and 0 hours prior to a 6-hour light exposure to spectrally filtered blue light (˜220 fc). Control rats were housed in their home cage under normal cyclic light exposure. Control rats were not dosed with either vehicle or drug. The ERG is a non-invasive clinical measurement of the electrical response of the eye to a flash of light. The a-wave and b-wave are two components of the ERG that are diagnostic of retinal function. The a-wave reflects outer retina function and is generated by interactions between photoreceptor and RPE while the b-wave reflects inner retina function, particularly on-bipolar cells. […] Changes in the a-wave amplitude or latency are diagnostic of outer retina pathology. The ERG was recorded after a five day recovery period from dark-adapted anesthetized rats (ketamine-HCl, 75 mg/Kg; xylazine, 6 mg/Kg). The eye's electrical response to a flash of light was elicited by viewing a ganzfeld. ERGs to a series of light flashes increasing in intensity were digitized to analyze temporal characteristics of the waveform and response voltage-log intensity relationship.

[4] = system: P23H mutant rhodopsin transgenic rats
Experimental: The P23H rhodopsin mutated transgenic rat has a specific rhodopsin mutation that has been identified in subsets of patients with RP. This degeneration is characterized by a slow degeneration of retinal photoreceptors and marked reduction in the electroretinogram. As in light damage, photoreceptor loss is primarily through an apoptotic process.
At the time of weaning, rats are randomly assigned to either a drug or vehicle group. Rats were dosed (oral gavage) with vehicle or levobetaxolol (40 mg/kg,) every other day. […] ERGs were recorded as described in Example 1.

rabbit inner retina = details: in vitro; literature; cited from earlier work
cortical cultures = details: in vitro; literature; cited from earlier work
[5] = system: rat ischemia/reperfusion injury model; details: literature; cited from earlier work
chick retinal cells = details: in vitro; literature; cited from earlier work

Brc1c(NC2=NCCN2)ccc2nccnc12 [brimonidine]
CNTF mRNA expression upregulation, factor compared to background expression (CNTF mRNA): not upregulated | Increase in bFGF mRNA expression (bFGF mRNA): 14 fold

Cc1c(C)c2c(c(C)c1O)CC[C@@](C)(CCC[C@H](C)CCC[C@H](C)CCCC(C)C)O2 [alpha-tocopherol]
Effectiveness in preventing light-induced functional or morphological changes [1]: ineffective

CC(C)NC[C@H](O)COc1ccc(CCOCC2CC2)cc1 [levobetaxolol]
Amelioration of photic induced retinopathy (retinal function vs control rats) (Male Sprague Dawley rats [2]): completely to ameliorated | Protection of retinal function compared to vehicle dosed rats (Male Sprague Dawley rats [2]): significant protection | CNTF mRNA expression upregulation, factor compared to background expression (CNTF mRNA): 2.3 | ERG amplitude relative to vehicle-dosed rats (Male Sprague Dawley rats [3]; 20 mg/kg IP, 5-day recovery): twice | ERG amplitudes, % of normal (Male Sprague Dawley rats [3]; 20 mg/kg IP, 5-day recovery): 69% | Protection of the retinal response to a flash of light (Male Sprague Dawley rats [3]; 40 mg/kg IP, 5-day recovery): Complete protection | Protection of retina function against light-induced retinal degeneration (Male Sprague Dawley rats [3]; 5-day recovery): significant protection | Persistence of protection after a 4-week recovery period (Male Sprague Dawley rats [3]): persisted | Outer retinal function, % better than vehicle dosed rats ([4]; 40 mg/kg oral every other day, 6-month old rats): 32% | Loss of retinal function compared to vehicle dosed rats ([4]; 40 mg/kg oral gavage every other day, 3- and 6-month old rats): significantly attenuated | Increase in bFGF mRNA expression (bFGF mRNA): 13 fold

CC(C)NCC(O)COc1ccc(CCOCC2CC2)cc1 (racemic) [betaxolol (racemic), betaxolol]
ERG response amplitudes vs vehicle dosed rats (Male Sprague Dawley rats [2]): higher but not significantly different | Protection of retinal function compared to vehicle dosed rats (Male Sprague Dawley rats [2]): No significant protection | Maximum a-wave response amplitude, fold higher than vehicle dosed rats (Male Sprague Dawley rats [3]; 20 mg/kg IP at 48, 24, 0 h before 6-hour blue light, 5-day recovery): 1.9 fold | Maximum a-wave response amplitude, fold higher than vehicle dosed rats (Male Sprague Dawley rats [3]; 40 mg/kg IP at 48, 24, 0 h before 6-hour blue light, 5-day recovery): 2.1 fold | Protection of retina function against light-induced retinal degeneration (Male Sprague Dawley rats [3]; 5-day recovery): dose-dependent protection | Changes in GABA immunoreactivity following glucose-oxygen deprivation (rabbit inner retina): partially inhibited | Glutamate-induced release of lactate dehydrogenase (cortical cultures): partially prevented | ERG b-wave deficit after ischemia/reperfusion [5]: protected | Kainate induced elevation of intracellular calcium (chick retinal cells): prevent

CC(C)NCC(O)COc1ccc(CCOCC2CC2)cc1 (stereo not drawn) [Betaxolol (R-isomer), betaxolol]
Protection of retina function against light-induced retinal degeneration (Male Sprague Dawley rats [3]; 5-day recovery): Partial but significant protection | ERGs, % of normal (Male Sprague Dawley rats [3]; 20 or 40 mg/kg IP): approximately 64% | Persistence of protection after a 4-week recovery period (Male Sprague Dawley rats [3]): persisted

Fc1ccc(C(c2ccc(F)cc2)N2CCN(C/C=C/c3ccccc3)CC2)cc1 [flunarizine]
Effectiveness in preventing light-induced functional or morphological changes [1]: moderately effective

COCCOC(=O)C1=C(C)NC(C)=C(C(=O)OC(C)C)C1c1cccc([N+](=O)[O-])c1 (stereo not shown) [nimodipine]
Effectiveness in preventing light-induced functional or morphological changes [1]: no effect
